Series [1] has as its system Human promyelocytic leukemia HL-60 cells. Description: Cell differentiation of HL-60 cells, nitroblue tetrazolium (NBT) reduction / morphology. The series is classed as cell-based. The method, then: Human promyelocytic leukemia HL-60 cells were cultured in RPMI-1640 medium supplemented by 10% heat-inactivated calf serum and 100 U/ml of penicillin plus 100 μg/ml of streptomycin. The flasks containing cells and medium were incubated in an incubator with 5% CO2 at 37° C. Log phase cells were seeded into the medium at a concentration of 1.2×10^5to 1.4×10^5 cells per ml and cultured in flasks containing 5 ml of medium. Each group consisted of three flasks. Different concentrations of coumarin-retinoids were added. At intervals following the addition of coumarin-retinoids to the cultures, a small portion of cells was removed and live cells were counted under a light microscope using a dye-exclusionmethod with trypan blue. Cell differentiation was judged in terms of morphology and nitroblue tetrazolium (NBT) reduction.
For a determination of NBT reducing activity, a portion of the coumarin-retinoid-treated cells was removed at intervals following treatment and centrifuged. After centrifugation, 0.5 ml of 0.1% NBT (containing 100 ng TPA) was added to each tube. The contents of the test tubes were then incubated for 1 hour at 37° C. Cell smears were prepared from the cell sediment and stained using the Wright-Giemsa technique. For each smear prepared, 200 cells were isolated for examination under a light microscope with an oil immersion lens. Cells stained with blue-black granules were considered NBT-positive cells. The 50% differentiation or effective concentration (ED50 or EC50) is shown in terms of molar (M) concentration of the […] tested.
For a determination of cell morphology, a cell smear was prepared at intervals following treatment of cells for each coumarin-retinoid concentration group using the Wright-Giemsa stain technique. Stained cells were counted and classified under a light microscope with an oil immersion lens. After treatment with coumarin-retinoids, the morphological development of HL-60 cells proceeded toward mature granulocytes. This development was manifested by decreased cell volume; a lower nuclei to cytoplasm ratio; smaller or missing nuclei; concentration of chromatin; and the appearance of a certain proportion of intermediate and late granuloblasts (progranulocytes), elongated rod granulocytes, and granulocytes with branched nuclei.
(§1) The protocols of Examples 14 and 21 were used, for the NBT and MTT assays, respectively.

In another series the test system is HL-60 cells. Description: MTT assay, inhibition of HL-60 cells. The series is classed as cell-based, human. The note with it: HL-60, Table 15. The method, then:
Human cancer cell lines (KB, A2780, MCF-7, HL-60, A549) were used. For a monolayer culture, 0.5 ml of trypsin solution ([…]) was added to the flasks for digestion. Microtiter plates (96 well) were used for the cell culture and 200 μl of cell suspension (1200 tumor cells) were placed in each well and incubated at 37° C. for 24 hours. Following the addition of the test compound, the control and treated flasks were placed in a CO2 incubator for 5 day culture. For the MTT assay, 200 μl of MTT solution (5 mg in 10 ml of phosphate buffer) plus the medium were added and incubated for another 4 hours. Following incubation, the supernatant was discarded and 200 μl of DMSO was added to each well. With a mild agitation the OD values were determined by the MR 700 Elisa at 570 nm (reference wavelength was 450 nm). The ED50 of the compound and tumor cell survival rate [formula] as percent inhibition were calculated.
as §1

Series [2] has as its system Ornithine decarboxylase (ODC). As to the kind of experiment: Croton oil induced ornithine decarboxylase (ODC) activity in mouse epidermis. Type of series: in vivo. The conditions noted are these: ICR mice, single dose pretreatment; FIG. 1, n=3. The method, then: ICR mice (6-8 weeks old) were pretreated with a single dose of coumarin retinoid. On the third day, the animals received a topical application of 0.2 ml of 1% croton oil in acetone. All animals were sacrificed five hours after the croton oil treatment and the epidermis was separated by a brief heat treatment at 52° C. for 30 seconds and minced in a blender. The cell suspension and broth were separated by a centrifugation at 30,000×g for 30 seconds and the supernatant was obtained. Ornithine decarboxylase (ODC) enzyme activity was determined by measuring the release of CO2 from L-(^14 C)-ornithine and expressed as nmole CO2 /30 min/mg protein and the results for coumarin retinoid I-10 and I-6 are shown in FIG. 1. […] ODC activity is a critical parameter for monitoring cancer chemoprevention or promotion.

The subject of series [3] is lipid peroxidation of rat liver microsome. As to the kind of experiment: Inhibition of Fe+2/Cys induced lipid peroxidation of rat liver microsome. The series is classed as biochemical. The method, then: Lipid peroxidation was induced by adding 1 mM FeSO4 and 10 mM cysteine to the microsome fraction of rat liver with the incubations being carried out at 37° C. for 30 minutes in a reaction mixture containing 10 mM phosphate buffer (pH 7.4). The reaction was terminated by the addition of 0.3 ml of 20% trichloroacetic acid solution. Thiobarbituric acid was then added and the mixture was boiled for 10 minutes. After cooling the test tubes under running tap water, the optical density at 532 nm was measured. Lipid peroxidation in both the treated groups and the control group was expressed in nmol MDA/mg protein. The percentage inhibition indicates the anti-oxidation properties of the coumarin retinoids tested.

The subject of series [4] is croton oil induced ear edema in mice. Description: Croton oil induced ear edema in mice. Type of series: in vivo. The method, then: ICR mice (body weight 18-20 grams) were used. Each group consisted of 10 mice. After three dosage treatments, the left ears of the mice in both the treated group and the control group were painted with 2% croton oil in 0.05 ml ether. All the mice were sacrificed six hours later and the ears of both sides were punched by a corneal knife and weighed, the difference of the ear weight of both sides for each mouse was calculated. The t- Student test was used for statistical calculation. Croton oil induced ear edema is a classical assay for evaluation of cancer promotion.

For series [5], the system named is Salmonella typhimurium strain TA100. Description: Anti-mutagenicity (Ames), TA100. The series is classed as cell-based. The note with it: MMS mutagen alone, 0.5 μl/plate. The method, then:
(§2) An antimutagenicity assay was conducted according to the method developed by Ames et al. using Salmonella typhimurium strains TA 102 and TA 100 and mammalian microsomal enzymes. Beta-naphthoflavone and phenobarbital-induced rat liver supernatant (9000×g S-9 fraction) was used as the enzyme source for metabolic activation. The night before the experiment, certified bacterial solution (assessed for its biological characteristics and donated by Professor Ames) was inoculated into petri dishes. The petri dishes were then incubated for 15 hours at 37° C. From each petri dish, 0.1 ml of the bacterial solution was removed and added to sterile test tubes. To these test tubes, 0.1 ml of different concentrations of coumarin retinoids and 0.5 ml of either S-9 mixed solution or phosphate buffer were then added. The final solution for each test tube was incubated in a water bath at 37° C. for 20 minutes before adding 2 ml of agar solution. After thorough mixing, the solution was transferred into petri dishes and incubated once again at 37° C. for 48 hours. After incubation, the number of colonies in each petri dish were counted. The revertant numbers of the bacteria in control and treated groups were compared and the inhibition rate was calculated.

For series [6], the system named is Salmonella typhimurium strain TA102. As to the kind of experiment: Anti-mutagenicity (Ames), TA102. Type of series: cell-based. The note with it: MMS mutagen alone, 0.5 μl/plate. The method, then: as §2
The subject of a further series is fetus absorption in mice. Description: Effect on fetus absorption in mice. Type of series: in vivo. The method, then:
(§3) Female mice were examined by vaginal smear the morning after being caged with male mice, and if sperm or a vaginal plug was discovered, then the mice were determined to be pregnant. The retinoids were administered at the dosage indicated starting on the seventh day of pregnancy and continued once a day for the next ten days. On the 20th day after the female mice were determined to be pregnant, they were sacrificed by cervical dislocation. Both sides of the uterus were checked and the number of living embryos, dead embryos, and absorbed embryos were counted. The living embryos were further examined for bone abnormalities.

Series [7] concerns bone abnormalities in mouse fetus. As to the kind of experiment: Bone abnormalities in mouse fetus. The series is classed as in vivo. The method, then: as §3
After the embryos became transparent, they were dissected and their skeletons were checked by observation under a microscope.

In another series the test system is chondrosarcoma. Description: Growth of chondrosarcoma in rats. Type of series: in vivo. The conditions noted are these: for Body Weight final: in g (unit assumed). From the text:
Transplantable chondrosarcomas obtained from Dr. Trown, Hoffman--La Roche Institute of Molecular Biology and Wistar rats obtained from the Breeding Center of Experimental Animals, Chinese Academy of Medical Sciences were used. According to the routine transplantation protocol as described in Cancer Treatment Reports 60(11):1647-1653 (1976) where the small pieces of chondrosarcoma tumor were implanted subcutaneously in the right inguinal region of rats using a trocar. Tumor-bearing rats were randomized to a control group and a treated group. Each group consisted of ten rats. […] Sixty days after transplantation, the rats were sacrificed and the tumor weight was determined. The inhibition rate was calculated according to the following formula: [formula]

Turning to `CC1=C(/C=C/C(C)=C/C=C/C(C)=C/C(=O)Oc2ccc3c(C)cc(=O)oc3c2)C(C)(C)CCC1` [Compound I-32, 4-methyl-7-retinoyloxy-coumarin], the EC50 in series [1] (HL-60, Table 15, read-out: NBT ED50) stood at 13 µM; with HL-60 cells it was 11 µM.

Regarding `CC(=O)c1cc2cc(Cl)c(OC(=O)/C=C(C)/C=C/C=C(C)/C=C/C3=C(C)CCCC3(C)C)cc2oc1=O` [Compound I-6], the “NBT (+) %” value in [1] (10^-4 M) is on record as 96%; in series [1] (10^-5 M), 81%; in series [1] (10^-6 M) it was 78%; in series [1] (10^-7 M), 31%; in [1] (10^-8 M) it was 2%. Also, in series [2], the “inhibition of croton oil induced ODC activity” value was “significantly inhibited the ODC activity induced by croton oil”. The “Inhibition (%) of lipid peroxidation” value in series [3] (20 μM) is given as 9.6%; in series [3] (200 μM), 13.5%. Also, in series [3] (200 μM, n = 3, p < 0.05), the “Lipid Peroxidation” value is reported as 2.03 ± 0.16 μM MDA/mg protein. Besides, the entries for the “Ear Edema (x ± SD)” value in series [4] (50 mg/kg) and in series [4] (100 mg/kg) were 13.4 ± 3.1 mg and 15.1 ± 2.7 mg, respectively. The “IR (%)” value in [4] (50 mg/kg) is given as 19%; in series [4] (100 mg/kg), 9%.

As to `COS(C)(=O)=O` [MMS], the “his+ -revertants/per plate, TA100” value in series [5] was 1083.7 ± 99.3 revertants/per plate. The “his+ -revertants/per plate, TA102” value in series [6] was determined as 1760 ± 288.4 revertants/per plate.

For the compound `CC(=O)c1cc2c(OC(=O)/C=C(C)/C=C/C=C(C)/C=C/C3=C(C)CCCC3(C)C)cc(OC(=O)/C=C(C)/C=C/C=C(C)/C=C/C3=C(C)CCCC3(C)C)cc2oc1=O` [Compound I-10], the “NBT (+) %” value in [1] (6.4 × 10^-6 M) is 99%; in [1] (6.4 × 10^-7 M) it was 96%; in series [1] (6.4 × 10^-8 M) it was 82%; in series [1] (6.4 × 10^-9 M) it was 33%; in series [1] (6.4 × 10^-10 M) it was 10%. The “Fetus Absorption, absorbed number/implanted number” value is on record as 0/104 in the series on fetus absorption in mice (20 mg/kg once a day from day 7 of pregnancy) and 0/107 with fetus absorption in mice (40 mg/kg once a day from day 7 of pregnancy). In addition, the “inhibition of croton oil induced ODC activity” value in [2] is listed as “significantly inhibited the ODC activity induced by croton oil”. Also, the “Ear Edema (x ± SD)” value in series [4] (50 mg/kg) stood at 14.2 ± 2.3 mg; in series [4] (100 mg/kg), 11.3 ± 3.0 mg. Also, the results for the “IR (%)” value in [4] (50 mg/kg) and in [4] (100 mg/kg) were 14% and 32%, respectively. Further, the “Delayed Calcification, Occipital delay/fetus number” value was 22/66 in [7] (20 mg/kg) and 15/81 in series [7] (40 mg/kg). Also, the “Delayed Calcification, Sternum delay/fetus number” value in series [7] (20 mg/kg) is given as 14/66; in series [7] (40 mg/kg), 21/81. Besides, the “Inhibition rate (%)” value in the series with chondrosarcoma (5 mg/kg P.O. (Table 13)) was 14.8%. In addition, the “Tumor Weight” value with chondrosarcoma (5 mg/kg P.O. (Table 13)) came out at 12.1 grams; in the series on chondrosarcoma (10 mg/kg P.O.) it was 12.8 grams; in the series with chondrosarcoma (20 mg/kg P.O.), 8.2 grams. Also, the Animals final with chondrosarcoma (5 mg/kg P.O., initial 10 (Table 13)) amounted to 10; in the series with chondrosarcoma (10 mg/kg P.O., initial 10), 9; in the series with chondrosarcoma (20 mg/kg P.O., initial 10), 9. The “Body Weight final” value worked out at 258.4 in the series with chondrosarcoma (5 mg/kg P.O., initial 97.8 (Table 13)); 248.0 with chondrosarcoma (10 mg/kg P.O., initial 98.2); 253.1 in the series with chondrosarcoma (20 mg/kg P.O., initial 97.4).

`CCc1cc2c(C)cc(=O)oc2cc1OC(=O)/C=C(C)/C=C/C=C(C)/C=C/C1=C(C)CCCC1(C)C` [Compound I-31, 4-methyl-6-ethyl-7-retinoyloxy-coumarin] had an EC50 with HL-60 cells (Homo sapiens) greater than 10 µM.

Compound `CC1=C(/C=C/C(C)=C/C=C/C(C)=C/C(=O)Oc2cc(=O)oc3c(C)cccc23)C(C)(C)CCC1` [Compound I-29] displayed an EC50 in the series on HL-60 cells (Homo sapiens) of 1.9 µM.

Consider `CC(=O)c1cc2ccc(OC(=O)/C=C(C)/C=C/C=C(C)/C=C/C3=C(C)CCCC3(C)C)c(C(=O)O)c2oc1=O` [Compound I-5], for which the “NBT (+) %” value is 69% in series [1] (10^-4 M), 89% in [1] (10^-5 M) and 41% in series [1] (10^-7 M). For the same compound, the “Inhibition (%) of lipid peroxidation” value in [3] (1 μM) came out at 7.3%; in series [3] (10 μM) it was 16.6%; in [3] (100 μM), 36.6%. The “Lipid Peroxidation” value in [3] (10 μM, n = 3, p < 0.05) is listed as 1.95 ± 0.18 μM MDA/mg protein; in [3] (100 μM, n = 3, p < 0.01), 1.43 ± 0.16 μM MDA/mg protein.

On to `CC1=C(/C=C/C(C)=C/C=C/C(C)=C/C(=O)Oc2cc(OC(=O)/C=C(C)/C=C/C=C(C)/C=C/C3=C(C)CCCC3(C)C)c3c(C)cc(=O)oc3c2)C(C)(C)CCC1` [Compound I-33, 4-methyl-5,7-diretinoyloxy-coumarin], for which the EC50 in the series with HL-60 cells (Homo sapiens) was 3.2 µM.
